Measurements as given in paper PMC4984800, “A first in man, dose-finding study of the mTORC1/mTORC2 inhibitor OSI-027 in patients with advanced solid malignancies” (British Journal of Cancer, 2016).
Like-named read-outs stand apart in the source and are kept apart here.

Assays:
[1] = First-in-human trial: pharmacokinetics in plasma and urine; type: in vivo; details: for AUC(0-t): read-out: AUC24hr
Method: Blood and urine samples were collected at prespecified time points for 24 h after initial dose and at days 2–3 (S2) and after multiple doses on days 3–4 (S1) and 22–23 (S3) across dose levels. Predose samples were collected on days 8, 15 and 22. Urine samples were collected during cycle 1.
Descriptive statistics were used to summarise the safety data, including all patients who received at least one dose of OSI-027. All patients who completed the pharmacokinetic sampling were included in the PK analyses, which used descriptive statistics to summarise AUC0–∞, AUC0–t, Cmax, Clast, Tmax, Tlast, %AUC extrapolated, T1/2, clearance (Cl/F) and volume of distribution (Vz/F). Exploratory analysis were planned to correlate pharmacodynamics and pharmacokinetics. Response to treatment was evaluated according to Response Evaluation Criteria in Solid Tumors (RECIST) ([Therasse et al, 2000]).

pPRAS40 (Thr246) in PBMC = assay: Pharmacodynamics in PBMC: pPRAS40 (Thr246), mTORC2 effector; type: in vivo, human
Method: Drug-mediated inhibition of the mTORC1 and mTORC2 signalling was evaluated through assessing modulation of phospho-4EBP1 and phospho-PRAS40 in PBMC, as well as phospho-4EBP1 and phospho-S6 in tumour biopsies. Blood aliquots were collected prior to start dosing and at prespecified time points during the first course of treatment. Fresh tumour biopsies were obtained from selected patients during the dose escalation stage and from all patients in the expansion cohorts, at baseline and during cycle 1.
Drug-mediated inhibition of mTORC1 and mTORC2 signalling by OSI-027 was assessed by measuring inhibition of their effectors p4EBP1 (Thr37/46) and pPRAS40 (Thr246), respectively, in PBMC. In addition, paired tumour biopsies at screening and during first month of therapy were used to study target modulation.

mTORC1 = test system: mTORC1; set-up: method as in Bhagwat et al, 2011; Falcon et al, 2011; details: ref Bhagwat et al, 2011, Falcon et al; cited from earlier work
[2] = rodents; preclinical; cited from earlier work
[3] = preclinical toxicology studies; cited from earlier work
[4] = monkeys; preclinical; cited from earlier work
[5] = human, plasma, oral, 40 mg, Schedule 3, 40mg, Day 1, N=6, median (range)
[6] = human, plasma, oral, 40 mg, Schedule 3, 40mg, Day 22, N=4, median (range)
[7] = human, plasma, oral, 45 mg, Schedule 1, 45 mg, Day 1, N=3, median (range)
[8] = human, plasma, oral, 45 mg, Schedule 1, 45 mg, Day 3, N=3, median (range)
[9] = human, plasma, oral, 50 mg, Schedule 3, 50 mg, Day 1, N=3, median (range)
[10] = human, plasma, oral, 50 mg, Schedule 3, 50 mg, Day 22, N=1
[11] = human, plasma, oral, 65 mg, Schedule 1, 65 mg, Day 1, N=3, median (range)
[12] = human, plasma, oral, 65 mg, Schedule 1, 65 mg, Day 3, N=3, median (range)
[13] = human, plasma, oral, 80 mg, Schedule 2, 80 mg, N=4, median (range)
[14] = human, plasma, oral, 90 mg, Schedule 1, 90 mg, Day 1, N=14, median (range)
[15] = human, plasma, oral, 90 mg, Schedule 1, 90 mg, Day 3, N=14, median (range)
[16] = human, plasma, oral, 120 mg, Schedule 1, 120 mg, Day 1, N=14, median (range)
[17] = human, plasma, oral, 120 mg, Schedule 1, 120 mg, Day 3, N=13, median (range)
[18] = human, plasma, oral, 160 mg, Schedule 1, 160 mg, Day 1, N=5, median (range)
[19] = human, plasma, oral, 160 mg, Schedule 1, 160 mg, Day 3, N=5, median (range)
[20] = human, plasma, oral, 160 mg, Schedule 2, 160 mg, N=3, median (range)
[21] = human, plasma, oral, 240 mg, Schedule 2, 240mg, N=15, median (range)

## COc1cccc2cc(-c3nc([C@H]4CC[C@H](C(=O)O)CC4)n4ncnc(N)c34)[nH]c12 [OSI-027]
[1]; human, plasma, oral, 40 mg, Schedule 2, 40 mg, N=3, median (range)
  Cmax: 2.51 µg/mL
[1]; human, plasma, oral, 40 mg, Schedule 2, 40 mg, N=3, median (range), read-out: T1/2 (converted)
  half-life: 12.4 h
[1]; [5]
  AUC(0-inf): 77.1 µg·h/mL
  Cmax: 3.14 µg/mL
[1]; human, plasma, oral, 40 mg, Schedule 3, 40mg, Day 1, N=6, median (range), read-out: T1/2 (converted)
  half-life: 17.8 h
[1]; [6]
  Cmax: 3 µg/mL
  AUC(0-t): 50.1 µg·h/mL
[1]; human, plasma, oral, 40 mg, Schedule 3, 40mg, Day 22, N=4, median (range), read-out: T1/2 (converted)
  half-life: 15.9 h
[1]; [7]
  AUC(0-inf): 31.1 µg·h/mL
  Cmax: 2.77 µg/mL
[1]; human, plasma, oral, 45 mg, Schedule 1, 45 mg, Day 1, N=3, median (range), read-out: T1/2 (converted)
  half-life: 7.65 h
[1]; [8]
  Cmax: 3.85 µg/mL
  AUC(0-t): 35.1 µg·h/mL
[1]; human, plasma, oral, 45 mg, Schedule 1, 45 mg, Day 3, N=3, median (range), read-out: T1/2 (converted)
  half-life: 9.14 h
[1]; [9]
  AUC(0-inf): 46.2 µg·h/mL
  Cmax: 3.04 µg/mL
[1]; human, plasma, oral, 50 mg, Schedule 3, 50 mg, Day 1, N=3, median (range), read-out: T1/2 (converted)
  half-life: 10.3 h
[1]; [10]
  Cmax: 1.11 µg/mL
  AUC(0-t): 17.2 µg·h/mL
[1]; [11]
  AUC(0-inf): 50 µg·h/mL
  Cmax: 4.75 µg/mL
[1]; human, plasma, oral, 65 mg, Schedule 1, 65 mg, Day 1, N=3, median (range), read-out: T1/2 (converted)
  half-life: 7.01 h
[1]; [12]
  Cmax: 5.55 µg/mL
  AUC(0-t): 64.4 µg·h/mL
[1]; human, plasma, oral, 65 mg, Schedule 1, 65 mg, Day 3, N=3, median (range), read-out: T1/2 (converted)
  half-life: 8.46 h
[1]; [13]
  AUC(0-inf): 52.6 µg·h/mL
  Cmax: 3.89 µg/mL
[1]; human, plasma, oral, 80 mg, Schedule 2, 80 mg, N=4, median (range), read-out: T1/2 (converted)
  half-life: 9.22 h
[1]; [14]
  AUC(0-inf): 90.3 µg·h/mL
  Cmax: 5.44 µg/mL
[1]; human, plasma, oral, 90 mg, Schedule 1, 90 mg, Day 1, N=14, median (range), read-out: T1/2 (converted)
  half-life: 12.1 h
[1]; [15]
  Cmax: 7.01 µg/mL
  AUC(0-t): 69.6 µg·h/mL
[1]; human, plasma, oral, 90 mg, Schedule 1, 90 mg, Day 3, N=14, median (range), read-out: T1/2 (converted)
  half-life: 12 h
[1]; [16]
  AUC(0-inf): 87.6 µg·h/mL
  Cmax: 5.59 µg/mL
[1]; human, plasma, oral, 120 mg, Schedule 1, 120 mg, Day 1, N=14, median (range), read-out: T1/2 (converted)
  half-life: 10.2 h
[1]; [17]
  Cmax: 5.45 µg/mL
  AUC(0-t): 54.5 µg·h/mL
[1]; human, plasma, oral, 120 mg, Schedule 1, 120 mg, Day 3, N=13, median (range), read-out: T1/2 (converted)
  half-life: 12.8 h
[1]; [18]
  AUC(0-inf): 131 µg·h/mL
  Cmax: 9.33 µg/mL
[1]; human, plasma, oral, 160 mg, Schedule 1, 160 mg, Day 1, N=5, median (range), read-out: T1/2 (converted)
  half-life: 10.3 h
[1]; [19]
  Cmax: 11 µg/mL
  AUC(0-t): 106 µg·h/mL
[1]; human, plasma, oral, 160 mg, Schedule 1, 160 mg, Day 3, N=5, median (range), read-out: T1/2 (converted)
  half-life: 11.9 h
[1]; [20]
  AUC(0-inf): 267 µg·h/mL
  Cmax: 7.62 µg/mL
[1]; human, plasma, oral, 160 mg, Schedule 2, 160 mg, N=3, median (range), read-out: T1/2 (converted)
  half-life: 24.7 h
[1]; [21]
  AUC(0-inf): 125 µg·h/mL
  Cmax: 8.78 µg/mL
[1]; human, plasma, oral, 240 mg, Schedule 2, 240mg, N=15, median (range), read-out: T1/2 (converted)
  half-life: 13.8 h
[1]; human, plasma, oral, patients, estimate, based on the weekly dose schedule, read-out: half-life (converted)
  half-life: ~14 h
[1]; human, plasma, oral, patients, range over groups, read-out: half-life, range
  half-life: 8 to 25 h
[1]; human, plasma, oral, patients, across dose levels
  Tmax: ≤ 4 h
[1]; patients
  exposure versus dose: dose proportional
  urinary excretion of unchanged OSI-027, range: 1–7%
[1]; patients, estimate, based on the weekly dose schedule
  half-life: 14 h
pPRAS40 (Thr246) in PBMC; 4 h after dosing, doses over 30 mg, almost universal
  inhibition of pPRAS40 in PBMC: Over 50%
pPRAS40 (Thr246) in PBMC; S1, 90 mg, during the 3 days on treatment
  inhibition of pPRAS40 in PBMC: Over 50%
pPRAS40 (Thr246) in PBMC; S1, 160 mg, during the 4-days off treatment, most patients
  target inhibition (pPRAS40) in PBMC: Over 50%
mTORC1
  IC50: 0.022 µM
[2]
  maximum tolerated dose (MTD) in toxicology studies: 20 mg kg^−1 per day
[3]
  preclinical toxicology findings: signs of immunosuppression, renal function impairment, glucose metabolism abnormalities as well as potential for cardiac and ocular toxicities at high doses
[4]
  maximum tolerated dose (MTD) in toxicology studies: 2.5 mg kg^−1 per day
